Assays:
Experiment in all cases: relative viability (nuclei count vs DMSO), 5 days (fraction); higher = more cells survive
[1] = compound: CC(C)(C)c1nc(-c2cccc(NS(=O)(=O)c3c(F)cccc3F)c2F)c(-c2ccnc(N)n2)s1 [Dabrafenib] + CC(C)C[C@H](NC(=O)[C@H](Cc1ccccc1)NC(=O)c1cnccn1)B(O)O [Bortezomib] (partner 0.002 µM)
Procedure, shortened: (§1)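 Lung cancer cell lines in 1536-well plates got either a single drug or a fixed anchor-drug dose together with five library-drug doses (not always all listed) in √10 steps, by pin tool, on the day after seeding. Nuclei were counted after 5 days, and relative viability is the treated-to-vehicle ratio of nuclei counts. Values are medians of duplicate plates.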

[2] = compound: CC(C)(C)c1nc(-c2cccc(NS(=O)(=O)c3c(F)cccc3F)c2F)c(-c2ccnc(N)n2)s1 [Dabrafenib] + O=C(CCCCCCC(=O)Nc1ccccc1)NO [Vorinostat] (partner 1 µM)
Procedure, shortened: as §1

[3] = compound: NC(=O)c1ccc(N(C(N)=O)c2c(F)cccc2F)nc1-c1ccc(F)cc1F [VX-702] + N=C(N)NC(=N)NCCc1ccccc1 [Phenformin] (partner 250 µM)
Procedure, shortened: as §1

[4] = compound: NC(=O)c1ccc(N(C(N)=O)c2c(F)cccc2F)nc1-c1ccc(F)cc1F [VX-702] + NC(=O)Nc1cc(-c2cccc(F)c2)sc1C(=O)N[C@H]1CCCNC1 [AZD7762] (partner 0.2 µM)
Procedure, shortened: as §1

Row | Cell Line | relative viability ([1]; first compound 0.003 µM) | relative viability ([1]; first compound 0.009487 µM) | relative viability ([1]; first compound 0.03 µM) | relative viability ([1]; first compound 0.09487 µM) | relative viability ([1]; first compound 0.3 µM) | relative viability ([2]; first compound 0.003 µM) | relative viability ([2]; first compound 0.009487 µM) | relative viability ([2]; first compound 0.03 µM) | relative viability ([2]; first compound 0.09487 µM) | relative viability ([2]; first compound 0.3 µM) | relative viability ([3]; first compound 0.02 µM) | relative viability ([3]; first compound 0.2 µM) | relative viability ([3]; first compound 0.6325 µM) | relative viability ([3]; first compound 2 µM) | relative viability ([4]; first compound 0.02 µM) | relative viability ([4]; first compound 0.2 µM) | relative viability ([4]; first compound 0.6325 µM) | relative viability ([4]; first compound 2 µM)
1 | 201T | 1.08 | 1.07 | 1.06 | 1.11 | 1.1 | 0.978 | 1.07 | 0.813 | 0.947 | 0.98 | 0.43 | 0.457 | 0.453 | 0.434 | 0.585 | 0.561 | 0.509 | 0.449
2 | A549 |  |  |  |  |  |  |  |  |  |  | 0.128 | 0.19 | 0.154 | 0.137 |  |  |  | 
3 | A-427 |  | 0.969 | 0.939 | 0.821 | 0.987 | 0.793 | 0.962 | 0.787 | 0.762 | 0.866 | 0.306 | 0.303 | 0.395 | 0.28 | 0.742 | 0.699 | 0.661 | 0.738
4 | ABC-1 |  | 0.292 | 0.265 | 0.31 | 0.288 |  | 1.37 | 1.19 | 1.25 | 1.04 | 0.214 | 0.201 | 0.229 | 0.228 | 0.425 |  | 0.432 | 0.897
5 | BEN |  | 0.936 |  | 0.696 | 0.996 |  | 0.499 |  | 0.517 | 0.612 | 0.263 | 0.252 | 0.228 | 0.236 | 0.841 | 0.637 | 0.597 | 0.691
6 | CAL-12T | 0.623 | 1.18 | 1.06 | 1.12 | 1.08 | 1.06 | 0.581 | 0.804 | 0.679 | 0.795 | 0.699 | 0.55 | 0.609 | 0.632 | 0.517 | 0.644 | 0.58 | 0.625
7 | COR-L23 | 1.06 | 1.15 | 0.91 | 0.898 | 0.915 | 0.387 | 0.418 | 0.441 | 0.412 | 0.44 | 0.484 | 0.492 | 0.437 | 0.494 |  |  |  | 
8 | COR-L 105 | 0.721 | 0.843 | 0.69 | 0.738 | 0.895 | 0.779 | 0.975 | 0.806 | 0.888 | 0.911 | 0.529 | 0.478 | 0.448 | 0.459 |  |  |  | 
9 | Calu-6 | 1.07 | 1.03 | 0.844 | 0.712 | 0.824 |  |  |  |  |  |  |  |  |  |  |  |  | 
10 | ChaGo-K-1 |  | 0.816 | 1.01 | 0.983 | 1.11 | 0.518 | 0.727 | 0.663 | 0.694 | 0.754 | 0.528 | 0.462 | 0.506 | 0.499 | 0.958 | 0.879 | 0.896 | 0.879
11 | EBC-1 | 0.602 | 0.644 | 0.477 | 0.411 | 0.353 |  |  |  |  |  |  |  |  |  |  |  |  | 
12 | EKVX | 0.77 | 1.1 | 0.969 | 0.891 | 1.12 |  | 0.862 | 0.716 | 0.608 | 0.806 | 0.235 | 0.189 | 0.224 | 0.214 | 0.726 | 0.673 | 0.407 | 0.776
13 | EMC-BAC-2 | 1.04 | 1.11 | 1.03 | 0.936 | 1.06 |  | 0.459 | 0.324 | 0.281 | 0.328 | 0.522 | 0.549 | 0.526 | 0.402 | 1.11 | 1.08 | 1.16 | 1.08
14 | EPLC-272H |  | 0.945 | 0.954 | 0.631 | 1.18 | 0.401 | 0.411 | 0.409 | 0.436 | 0.498 | 0.303 | 0.302 | 0.381 | 0.26 | 0.0171 | 0.202 | 0.234 | 0.211
15 | H3255 | 0.703 | 0.858 | 0.997 | 0.642 | 1.09 | 0.762 | 0.765 | 0.755 | 0.913 | 0.78 | 0.352 | 0.344 | 0.371 | 0.386 | 0.987 | 0.901 | 0.994 | 0.996
16 | HARA | 1.17 | 1.16 | 1 | 1.06 | 1.27 | 0.553 | 0.644 |  | 0.481 | 0.567 | 0.433 | 0.42 | 0.599 | 0.569 | 0.313 |  | 0.306 | 0.331
17 | HCC-15 | 1.06 | 0.971 | 0.997 | 0.891 | 0.814 | 0.862 | 0.844 | 0.825 | 0.768 | 0.896 | 0.536 | 0.441 | 0.525 | 0.557 | 1.31 | 1.18 | 1.32 | 1.19
18 | HCC-44 | 0.884 | 0.854 | 0.935 | 0.853 | 0.964 | 1.07 | 1.06 | 1.28 | 1.05 | 1.08 | 0.191 | 0.286 | 0.191 | 0.225 | 1.05 | 1.03 | 1.06 | 1.04
19 | HCC-78 |  | 0.655 | 0.543 | 0.4 | 0.513 |  | 0.507 | 0.426 | 0.511 | 0.616 | 0.63 | 0.823 | 0.689 | 0.676 | 0.541 | 0.589 | 0.774 | 0.798
20 | HCC-366 |  | 1.05 | 0.794 | 0.945 | 1.08 | 0.365 | 0.286 | 0.29 | 0.296 | 0.247 | 0.594 | 0.62 | 0.679 | 0.5 | 0.381 | 0.218 | 0.372 | 0.123
21 | HCC-827 | 0.778 | 1.03 | 1.06 |  | 0.996 | 0.423 | 1.01 | 0.785 |  | 0.79 | 0.417 | 0.457 | 0.423 | 0.188 | 0.2 | 0.226 | 0.215 | 0.137

Reference: the supplement of paper PMC10307832
